Test results: US20240239755A1, “SUBSTITUTED PYRIDAZINONES, SALTS OR N-OXIDES THEREOF AND THEIR USE AS HERBICIDALLY ACTIVE SUBSTANCES” (Bayer Aktiengesellschaft, priority 2021, published 2024)

What was measured:
Format in all cases: in vivo
Kochia scoparia (KCHSC) [1] = assay: Herbicidal pre-emergence action, 1280 g/ha (Table A4); settings: visual grading after ca. 3 weeks vs untreated controls
How it was run: (§1)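 Percent herbicidal damage relative to untreated plants (0% = as control, 100% = plants dead) was graded visually about 3 weeks after treatment under greenhouse conditions. The pre-emergence application went onto the soil surface over sown seeds, as aqueous WP/EC suspension or emulsion at 600 L/ha plus 0.5% additive.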

Kochia scoparia (KCHSC) [2] = assay: Herbicidal pre-emergence action, 320 g/ha (Table C1); settings: visual grading after ca. 3 weeks vs untreated controls
Description: (§2) Seeds of mono- and dicotyledonous weed plants were sown in plastic pots (double sowings with one species of mono- and one species of dicotyledonous weed plants per pot), in sandy loam, and covered with soil. The compounds according to the invention, formulated in the form of wettable powders (WP) or as emulsifiable concentrates (EC), were applied to the surface of the covering soil as an aqueous suspension or as an emulsion, with the addition of 0.5% of an additive, at an application rate of 600 litres of water per hectare (converted). Following treatment, the pots were placed in a greenhouse and kept under optimum growth conditions for the test plants. The visual grading of the damage to the test plants was carried out after ca. 3 weeks in comparison to untreated controls (herbicidal effect in percent (%): 100% effect=plants have died, 0% effect=as control plants). Tables C1 to C6 below, show the effects of selected compounds of the general formula (I) according to Table 1 on various harmful plants using an application rate corresponding to 320 g/ha obtained by the experimental procedure mentioned above.

[3] = system: Alopecurus myosuroides (ALOMY); assay: Herbicidal pre-emergence action, 1280 g/ha (Table A2); settings: visual grading after ca. 3 weeks vs untreated controls
Description: as §2, with “A1” for “C1”, “A11” for “C6”, “and” for “using”, “1280” for “320”

Poa annua (POAAN) [4] = assay: Herbicidal pre-emergence action, 1280 g/ha (Table A7); settings: visual grading after ca. 3 weeks vs untreated controls
How it was run: as §1

Poa annua (POAAN) [5] = assay: Herbicidal pre-emergence action, 320 g/ha, POAAN; settings: visual grading after ca. 3 weeks
Description: as §2, with “plants).” for “plants). Tables C1 to C6 below, show the effects of selected compounds of the general formula (I) according to Table 1 on various harmful plants using an application rate corresponding to 320 g/ha obtained by the experimental procedure mentioned above.”
(§3) Tables C1 to C6 below, show the effects of selected compounds of the general formula (I) according to Table 1 on various harmful plants using an application rate corresponding to 320 g/ha obtained by the experimental procedure mentioned above.

[6] = system: Abutilon theophrasti (ABUTH); assay: Herbicidal pre-emergence action, 1280 g/ha (Table A1); settings: visual grading after ca. 3 weeks vs untreated controls
How it was run: as §1

Lolium rigidum (LOLRI) [7] = assay: Herbicidal pre-emergence action, 1280 g/ha (Table A5); settings: visual grading after ca. 3 weeks vs untreated controls
How it was run: as §1

[8] = system: Matricaria inodora (MATIN); assay: Herbicidal pre-emergence action, 1280 g/ha (Table A6); settings: visual grading after ca. 3 weeks vs untreated controls
How it was run: as §1

Setaria viridis (SETVI) [9] = assay: Herbicidal pre-emergence action, 1280 g/ha (Table A8); settings: visual grading after ca. 3 weeks vs untreated controls
How it was run: as §1

Stellaria media (STEME) [10] = assay: Herbicidal pre-emergence action, 1280 g/ha (Table A9); settings: visual grading after ca. 3 weeks vs untreated controls
How it was run: as §1

[11] = system: Amaranthus retroflexus (AMARE); assay: Herbicidal pre-emergence action, 1280 g/ha (Table A11); settings: visual grading after ca. 3 weeks vs untreated controls
How it was run: as §1

[12] = system: Abutilon theophrasti (ABUTH); assay: Herbicidal post-emergence action, 1280 g/ha (Table B1); settings: visual assessment after ca. 3 weeks vs untreated controls
How it was run: (§4)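 Post-emergence spray, single-leaf stage (2–3 wk after sowing, sandy loam); WP/EC in water + 0.5% additive, 600 L/ha. Greenhouse ~3 wk, then visual rating vs untreated: 0% = as control, 100% = plants dead.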

Kochia scoparia (KCHSC) [13] = assay: Herbicidal post-emergence action, 1280 g/ha (Table B4); settings: visual assessment after ca. 3 weeks vs untreated controls
How it was run: as §4

Lolium rigidum (LOLRI) [14] = assay: Herbicidal post-emergence action, 1280 g/ha (Table B5); settings: visual assessment after ca. 3 weeks vs untreated controls
How it was run: as §4

[15] = system: Matricaria inodora (MATIN); assay: Herbicidal post-emergence action, 1280 g/ha (Table B6); settings: visual assessment after ca. 3 weeks vs untreated controls
How it was run: as §4

Stellaria media (STEME) [16] = assay: Herbicidal post-emergence action, 1280 g/ha (Table B9); settings: visual assessment after ca. 3 weeks vs untreated controls
How it was run: as §4

Veronica persica (VERPE) [17] = assay: Herbicidal post-emergence action, 1280 g/ha, VERPE; settings: visual grading vs untreated controls
How it was run: (§5)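 Visual rating ~3 weeks after treatment: 0% equals untreated control, 100% means plants died. Treatment was a 1280 g/ha foliar spray (600 L water/ha, 0.5% additive, WP or EC formulation) applied to single-leaf-stage plants grown 2–3 weeks in sandy loam under controlled conditions.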

[18] = system: Amaranthus retroflexus (AMARE); assay: Herbicidal post-emergence action, 1280 g/ha, AMARE; settings: visual grading vs untreated controls
How it was run: as §5

Stellaria media (STEME) [19] = assay: Herbicidal pre-emergence action, 320 g/ha, STEME; settings: visual grading after ca. 3 weeks
How it was run: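 Percent herbicidal effect, graded by eye about 3 weeks after treatment relative to untreated pots (0% matching controls, 100% dead plants). Application of 320 g/ha onto soil covering freshly sown seeds, as aqueous suspension or emulsion plus 0.5% additive at 600 L/ha; pots kept in greenhouse.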

[20] = system: Amaranthus retroflexus (AMARE); assay: Herbicidal pre-emergence action, 320 g/ha, AMARE; settings: visual grading after ca. 3 weeks
Description: as §2, with “plants).” for “plants). Tables C1 to C6 below, show the effects of selected compounds of the general formula (I) according to Table 1 on various harmful plants using an application rate corresponding to 320 g/ha obtained by the experimental procedure mentioned above.”
as §3

[21] = system: Abutilon theophrasti (ABUTH); assay: Herbicidal post-emergence action, 320 g/ha, ABUTH; settings: visual grading after ca. 3 weeks
How it was run: (§6)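 Visual herbicidal scoring (0% = like control, 100% = plants died) was done about 3 weeks after treatment, with plants kept in the greenhouse. Treatment was a 320 g/ha spray of WP or EC aqueous preparations with 0.5% additive, at a water volume of 600 L/ha. Plants were at the single-leaf stage, 2–3 weeks post-sowing in sandy loam.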

Kochia scoparia (KCHSC) [22] = assay: Herbicidal post-emergence action, 320 g/ha, KCHSC; settings: visual grading after ca. 3 weeks
How it was run: as §6

Lolium rigidum (LOLRI) [23] = assay: Herbicidal post-emergence action, 320 g/ha, LOLRI; settings: visual grading after ca. 3 weeks
How it was run: as §6

Stellaria media (STEME) [24] = assay: Herbicidal post-emergence action, 320 g/ha, STEME; settings: visual grading after ca. 3 weeks
How it was run: as §6

[25] = system: Echinochloa crus-galli (ECHCG); assay: Herbicidal post-emergence action, 1280 g/ha (Table B3); settings: visual assessment after ca. 3 weeks vs untreated controls
Description: (§7) Seeds of mono- and dicotyledonous weed plants were sown in plastic pots (double sowings with one species of mono- and one species of dicotyledonous weed plants per pot), in sandy loam, covered with soil and grown under controlled growth conditions. 2 to 3 weeks after sowing, the test plants were sprayed in the single-leaf stage. The compounds according to the invention, formulated in the form of wettable powders (WP) or as emulsifiable concentrates (EC), were sprayed onto the green plant parts as an aqueous suspension or as an emulsion, with the addition of 0.5% of an additive, at an application rate of 600 litres of water per hectare (converted). The test plants were placed in the greenhouse for ca. 3 weeks under optimum growth conditions, and then the effect of the preparations was assessed visually in comparison with untreated controls (herbicidal effect in percent (%): 100% effect=plants have died, 0% effect=as control plants). Tables B1 to B11 below, show the effects of selected compounds of the general formula (I) according to Table 1 on various harmful plants using an application rate corresponding to 1280 g/ha obtained by the experimental procedure mentioned above.

Lolium rigidum (LOLRI) [26] = assay: Herbicidal pre-emergence action, 320 g/ha (Table C2); settings: visual grading after ca. 3 weeks vs untreated controls
How it was run: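 Herbicidal effect was graded by eye roughly 3 weeks after treatment, from 0% (as control) to 100% (dead plants). Weed seeds sown in sandy loam were covered and sprayed on the soil surface with WP/EC suspensions or emulsions, 0.5% additive, 600 L water/ha, then kept in a greenhouse.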

[27] = system: Echinochloa crus-galli (ECHCG); assay: Herbicidal post-emergence action, 320 g/ha, ECHCG; settings: visual grading after ca. 3 weeks
Description: as §7, with “plants).” for “plants). Tables B1 to B11 below, show the effects of selected compounds of the general formula (I) according to Table 1 on various harmful plants using an application rate corresponding to 1280 g/ha obtained by the experimental procedure mentioned above.”
Tables D1 to D8 below, show the effects of selected compounds of the general formula (I) according to Table 1 on various harmful plants using an application rate corresponding to 320 g/ha obtained by the experimental procedure mentioned above.

[28] = system: Matricaria inodora (MATIN); assay: Herbicidal post-emergence action, 320 g/ha, MATIN; settings: visual grading after ca. 3 weeks
How it was run: as §6

[29] = system: Amaranthus retroflexus (AMARE); assay: Herbicidal post-emergence action, 320 g/ha, AMARE; settings: visual grading after ca. 3 weeks
How it was run: as §6

Setaria viridis (SETVI) [30] = assay: Herbicidal post-emergence action, 1280 g/ha (Table B8); settings: visual assessment after ca. 3 weeks vs untreated controls
How it was run: as §4

Veronica persica (VERPE) [31] = assay: Herbicidal post-emergence action, 320 g/ha, VERPE; settings: visual grading after ca. 3 weeks
How it was run: as §6

SMILES | herbicidal effect KCHSC (Kochia scoparia (KCHSC) [1]) [%] | herbicidal effect KCHSC (Kochia scoparia (KCHSC) [2]) [%] | herbicidal effect POAAN (Poa annua (POAAN) [4]) [%] | herbicidal effect POAAN (Poa annua (POAAN) [5]) [%] | herbicidal effect LOLRI (Lolium rigidum (LOLRI) [7]) [%] | herbicidal effect MATIN [8] [%] | herbicidal effect STEME (Stellaria media (STEME) [10]) [%] | herbicidal effect AMARE [11] [%] | herbicidal effect ABUTH [12] [%] | herbicidal effect KCHSC (Kochia scoparia (KCHSC) [13]) [%] | herbicidal effect LOLRI (Lolium rigidum (LOLRI) [14]) [%] | herbicidal effect MATIN [15] [%] | herbicidal effect STEME (Stellaria media (STEME) [16]) [%] | herbicidal effect VERPE (Veronica persica (VERPE) [17]) [%] | herbicidal effect AMARE [18] [%] | herbicidal effect STEME (Stellaria media (STEME) [19]) [%] | herbicidal effect ABUTH [21] [%] | herbicidal effect KCHSC (Kochia scoparia (KCHSC) [22]) [%] | herbicidal effect STEME (Stellaria media (STEME) [24]) [%] | herbicidal effect AMARE [29] [%] | further results
Cc1nn(C)c(=O)c(Oc2ccc(Cl)cc2)c1O [Example I-002] | 90 | 90 | – | – | – | – | – | – | – | – | – | – | – | – | – | – | – | – | – | – | –
Cc1nn(C)c(=O)c(Oc2ccccc2OC(F)(F)F)c1O [Example I-008] | – | – | 100 | 100 | – | – | – | – | – | – | – | – | – | – | – | – | – | – | – | – | herbicidal effect ALOMY [3]: 100%
CCOC(=O)Oc1c(C)nn(C)c(=O)c1Oc1ccccc1C1CC1 [Example I-012] | 100 | – | 90 | 90 | 100 | 90 | 100 | 100 | 100 | 100 | 100 | 100 | 100 | 90 | 90 | 90 | 100 | 100 | 100 | – | herbicidal effect ABUTH [6]: 100%; herbicidal effect SETVI (Setaria viridis (SETVI) [9]): 100%; herbicidal effect AMARE [20]: 100%; herbicidal effect LOLRI (Lolium rigidum (LOLRI) [23]): 100%
Cc1nn(C)c(=O)c(Oc2cc(Cl)ccc2Cl)c1O [Example I-016] | – | – | – | – | 100 | 100 | 100 | 90 | 100 | 100 | 90 | 90 | 100 | 90 | 100 | – | 100 | 90 | 100 | 100 | herbicidal effect ECHCG [25]: 90%; herbicidal effect LOLRI (Lolium rigidum (LOLRI) [26]): 90%; herbicidal effect ECHCG [27]: 90%; herbicidal effect LOLRI (Lolium rigidum (LOLRI) [23]): 90%; herbicidal effect MATIN [28]: 90%
Cc1nn(C)c(=O)c(Oc2ccc(Cl)cc2Cl)c1OC(=O)C1CCC1 [Example I-064] | – | – | – | – | – | – | – | – | – | 100 | – | 100 | 100 | 90 | 100 | – | – | 100 | 90 | 100 | herbicidal effect ECHCG [25]: 100%; herbicidal effect SETVI (Setaria viridis (SETVI) [30]): 90%; herbicidal effect ECHCG [27]: 100%; herbicidal effect MATIN [28]: 90%
Cc1nn(C)c(=O)c(Oc2cc(F)c(F)cc2C2CC2)c1OC(=O)C(C)C [Example I-102] | 90 | 90 | – | – | 90 | 100 | 100 | 100 | 100 | 100 | 90 | 100 | 100 | 90 | 100 | 90 | – | – | 90 | 90 | herbicidal effect VERPE (Veronica persica (VERPE) [31]): 90%
